In ChEMBL document CHEMBL3396992, “Synthesis and biological evaluation of pyrazolylthiazole carboxylic acids as potent anti-inflammatory-antimicrobial agents” (2015):
Converted amounts (≈) assume the structure as drawn. The source made the active and inactive calls. The calls are words filed in the database; no cut-off is given here.

What was measured:
[1] = tested on: Escherichia coli; assay: Antimicrobial activity against Escherichia coli MTCC 1652 assessed as growth inhibition at 4 mg/ml after 24 hrs by agar well diffusion method; type: functional, organism-based
[2] = tested on: Candida albicans; assay: Antimicrobial activity against Candida albicans MTCC 3017 assessed as growth inhibition after 24 hrs by agar well diffusion method; type: functional; conditions: MTCC 3017, 24 h
[3] = tested on: Saccharomyces cerevisiae; assay: Antimicrobial activity against Saccharomyces cerevisiae MTCC 170 assessed as growth inhibition after 24 hrs by agar well diffusion method; type: functional
[4] = tested on: Bacillus subtilis; assay: Antimicrobial activity against Bacillus subtilis MTCC 121 assessed as growth inhibition at 4 mg/ml after 24 hrs by agar well diffusion method; type: functional; conditions: for zone of inhibition at 4000 µg/mL: MTCC 121, 24 h, read-out: DIZ
[5] = tested on: Rattus norvegicus; assay: Antiinflammatory activity against carrageenan-induced paw edema male Wistar albino rat at 50 mg/kg, ip administered 30 mins prior to carrageenan-challenge measured after 4 hrs relative to control; type: functional; conditions: route intraperitoneal
[6] = tested on: Rattus norvegicus; assay: Antiinflammatory activity against carrageenan-induced paw edema male Wistar albino rat assessed as edema volume at 50 mg/kg, ip administered 30 mins prior to carrageenan-challenge measured after 4 hrs (reference value: 1.88 +/- 0.20 mL); type: functional; conditions: route intraperitoneal
[7] = tested on: Staphylococcus aureus; assay: Antimicrobial activity against Staphylococcus aureus MTCC 96 assessed as growth inhibition after 24 hrs by agar well diffusion method; type: functional
[8] = tested on: Candida albicans; assay: Antimicrobial activity against Candida albicans MTCC 3017 assessed as growth inhibition at 4 mg/ml after 24 hrs by agar well diffusion method; type: functional; conditions: MTCC 3017, 24 h, read-out: DIZ
[9] = tested on: Rattus norvegicus; assay: Antiinflammatory activity against carrageenan-induced paw edema male Wistar albino rat at 50 mg/kg, ip administered 30 mins prior to carrageenan-challenge measured after 1 hr relative to control; type: functional; conditions: route intraperitoneal
[10] = tested on: Rattus norvegicus; assay: Antiinflammatory activity against carrageenan-induced paw edema male Wistar albino rat assessed as edema volume at 50 mg/kg, ip administered 30 mins prior to carrageenan-challenge measured after 3 hrs (reference value: 1.73 +/- 0.09 mL); type: functional; conditions: route intraperitoneal
[11] = tested on: Bacillus subtilis; assay: Antimicrobial activity against Bacillus subtilis MTCC 121 assessed as growth inhibition after 24 hrs by agar well diffusion method; type: functional
[12] = tested on: Pseudomonas aeruginosa; conditions: MTCC 741, 4 mg/ml
Description: Antimicrobial activity against Pseudomonas aeruginosa MTCC 741 assessed as growth inhibition at 4 mg/ml after 24 hrs by agar well diffusion method

[13] = tested on: Rattus norvegicus; assay: Antiinflammatory activity against carrageenan-induced paw edema male Wistar albino rat at 50 mg/kg, ip administered 30 mins prior to carrageenan-challenge measured after 3 hrs relative to control; type: functional; conditions: route intraperitoneal
[14] = tested on: Staphylococcus aureus; assay: Antimicrobial activity against Staphylococcus aureus MTCC 96 assessed as growth inhibition at 4 mg/ml after 24 hrs by agar well diffusion method; type: functional; conditions: for zone of inhibition at 4000 µg/mL: MTCC 96, 24 h, read-out: DIZ
[15] = tested on: Rattus norvegicus; assay: Antiinflammatory activity against carrageenan-induced paw edema male Wistar albino rat at 50 mg/kg, ip administered 30 mins prior to carrageenan-challenge measured after 2 hrs relative to control; type: functional; conditions: route intraperitoneal
[16] = tested on: Saccharomyces cerevisiae; assay: Antimicrobial activity against Saccharomyces cerevisiae MTCC 170 assessed as growth inhibition at 4 mg/ml after 24 hrs by agar well diffusion method; type: functional; conditions: for zone of inhibition at 4000 µg/mL: MTCC 170, 24 h, read-out: DIZ
[17] = tested on: Rattus norvegicus; assay: Antiinflammatory activity against carrageenan-induced paw edema male Wistar albino rat assessed as edema volume at 50 mg/kg, po administered 30 mins prior to carrageenan-challenge measured after 1 hr (reference value: 1.11 +/- 0.12 mL); type: functional
[18] = tested on: Rattus norvegicus; assay: Antiinflammatory activity against carrageenan-induced paw edema male Wistar albino rat assessed as edema volume at 50 mg/kg, ip administered 30 mins prior to carrageenan-challenge measured after 2 hrs (reference value: 1.21 +/- 0.16 mL); type: functional; conditions: route intraperitoneal

Row | SMILES | diameter of the inhibition zone (DIZ) [1] | MIC [2] | MIC ([3]; MTCC 170, 24 h) | zone of inhibition at 4000 µg/mL [4] | Activity [5] | Activity [6] | MIC ([7]; MTCC 96, 24 h) | zone of inhibition at 4000 µg/mL [8] | Activity [9] | Activity [10] | MIC ([11]; MTCC 121, 24 h) | DIZ [12] | Activity [13] | zone of inhibition at 4000 µg/mL [14] | Activity [15] | zone of inhibition at 4000 µg/mL [16] | Activity [17] | Activity [18] | MIC [3] | diameter of the inhibition zone (DIZ) [16] | also measured
1 | O=C(O)c1sc(-c2cn(-c3ccccc3)nc2-c2ccc(F)cc2)nc1-c1ccc(Cl)cc1 | inactive | 25 µg/mL (≈ 52.5 µM) | 25 µg/mL (≈ 52.5 µM) | 18.3 mm | 80.31% | 0.37 mL | 25 µg/mL (≈ 52.5 µM) | 20.6 mm | 70.27% | 0.75 mL | 25 µg/mL (≈ 52.5 µM) | inactive | 56.14% | 21.6 mm | 47.1% | 20.6 mm | 0.33 mL | 0.64 mL | – | – | –
2 | CCOC(=O)c1sc(-c2cn(-c3ccccc3)nc2-c2ccccc2)nc1-c1ccccc1 | inactive | 50 µg/mL (≈ 111 µM) | – | 11 mm | 87.23% | 0.24 mL | 50 µg/mL (≈ 111 µM) | 15.3 mm | 90.99% | 0.28 mL | 50 µg/mL (≈ 111 µM) | inactive | 83.81% | 14.3 mm | 75.2% | – | 0.1 mL | 0.3 mL | inactive | inactive | –
3 | CCOC(=O)c1sc(-c2cn(-c3ccccc3)nc2-c2ccc(F)cc2)nc1-c1ccc(OC)cc1 | inactive | 50 µg/mL (≈ 100 µM) | – | 13.3 mm | 82.97% | 0.32 mL | – | 15.6 mm | 80.18% | 0.39 mL | 50 µg/mL (≈ 100 µM) | inactive | 77.45% | – | 79.33% | – | 0.22 mL | 0.27 mL | inactive | inactive | MIC [7]: inactive; diameter of the inhibition zone (DIZ) [14]: inactive
4 | CCOC(=O)c1sc(-c2cn(-c3ccccc3)nc2-c2ccccc2)nc1-c1ccc(F)cc1 | inactive | 25 µg/mL (≈ 53.2 µM) | – | – | 88.29% | 0.42 mL | – | 18.6 mm | 73.87% | 0.31 mL | – | inactive | 82.08% | – | 81.81% | – | 0.29 mL | 0.22 mL | inactive | inactive | diameter of the inhibition zone (DIZ) [4]: inactive; MIC [7]: inactive; MIC [11]: inactive; diameter of the inhibition zone (DIZ) [14]: inactive
5 | COc1ccc(-c2nc(-c3cn(-c4ccccc4)nc3-c3ccc(F)cc3)sc2C(=O)O)cc1 | inactive | 50 µg/mL (≈ 106 µM) | 50 µg/mL (≈ 106 µM) | 14.6 mm | 80.85% | 0.36 mL | 25 µg/mL (≈ 53 µM) | 15.3 mm | 80.18% | 0.56 mL | 50 µg/mL (≈ 106 µM) | inactive | 67.63% | 20.6 mm | 66.94% | 15.3 mm | 0.22 mL | 0.4 mL | – | – | –
6 | O=C(O)c1sc(-c2cn(-c3ccccc3)nc2-c2ccc(Cl)cc2)nc1-c1ccc(F)cc1 | inactive | 50 µg/mL (≈ 105 µM) | 12.5 µg/mL (≈ 26.3 µM) | – | 79.78% | 0.38 mL | – | 12 mm | 73.87% | 0.49 mL | – | inactive | 71.67% | – | 72.72% | 24.6 mm | 0.29 mL | 0.33 mL | – | – | diameter of the inhibition zone (DIZ) [4]: inactive; MIC [7]: inactive; MIC [11]: inactive; diameter of the inhibition zone (DIZ) [14]: inactive
7 | O=C(O)c1sc(-c2cn(-c3ccccc3)nc2-c2ccc(F)cc2)nc1-c1ccccc1 | inactive | 25 µg/mL (≈ 56.6 µM) | 50 µg/mL (≈ 113 µM) | 18.3 mm | 90.42% | 0.18 mL | 25 µg/mL (≈ 56.6 µM) | 21.3 mm | 87.38% | 0.37 mL | 25 µg/mL (≈ 56.6 µM) | inactive | 78.61% | 20.3 mm | 81.81% | > 20 mm | 0.14 mL | 0.22 mL | – | – | –
8 | COc1ccc(-c2nn(-c3ccccc3)cc2-c2nc(-c3ccc(Cl)cc3)c(C(=O)O)s2)cc1 | inactive | 6.25 µg/mL (≈ 12.8 µM) | 6.25 µg/mL (≈ 12.8 µM) | 29.6 mm | 89.36% | 0.2 mL | 6.25 µg/mL (≈ 12.8 µM) | 27.6 mm | 83.78% | 0.28 mL | 6.25 µg/mL (≈ 12.8 µM) | inactive | 83.81% | 24.6 mm | 78.51% | 27.6 mm | 0.18 mL | 0.26 mL | – | – | –
9 | CCOC(=O)c1sc(-c2cn(-c3ccccc3)nc2-c2ccc(Cl)cc2)nc1-c1ccc(Cl)cc1 | inactive | 50 µg/mL (≈ 96.1 µM) | 50 µg/mL (≈ 96.1 µM) | – | 90.42% | 0.18 mL | – | 13 mm | 83.78% | 0.12 mL | – | inactive | 93.06% | – | 77.68% | 15 mm | 0.18 mL | 0.27 mL | – | – | diameter of the inhibition zone (DIZ) [4]: inactive; MIC [7]: inactive; MIC [11]: inactive; diameter of the inhibition zone (DIZ) [14]: inactive
10 | O=C(O)c1sc(-c2cn(-c3ccccc3)nc2-c2ccccc2)nc1-c1ccc(F)cc1 | inactive | 12.5 µg/mL (≈ 28.3 µM) | 25 µg/mL (≈ 56.6 µM) | 18.3 mm | 90.95% | 0.17 mL | 12.5 µg/mL (≈ 28.3 µM) | 25.6 mm | 82.88% | 0.18 mL | 25 µg/mL (≈ 56.6 µM) | inactive | 89.59% | 24.6 mm | 86.77% | 20.6 mm | 0.19 mL | 0.16 mL | – | – | –
11 | C[C@@H]1[C@H](O)[C@@H](C)/C=C/C=C/C=C/C=C/C=C/C=C/C=C/[C@H](O[C@@H]2O[C@H](C)[C@@H](O)[C@H](N)[C@@H]2O)C[C@@H]2O[C@](O)(C[C@@H](O)C[C@@H](O)[C@H](O)CC[C@@H](O)C[C@@H](O)CC(=O)O[C@H]1C)C[C@H](O)[C@H]2C(=O)O [AMPHOTERICIN B] | – | 6.25 µg/mL (≈ 6.76 µM) | 6.25 µg/mL (≈ 6.76 µM) | – | – | – | – | 16.6 mm | – | – | – | – | – | – | – | 19.3 mm | – | – | – | – | –
12 | CCOC(=O)c1sc(-c2cn(-c3ccccc3)nc2-c2ccc(OC)cc2)nc1-c1ccc(OC)cc1 | – | 50 µg/mL (≈ 97.7 µM) | – | – | 90.95% | 0.17 mL | 50 µg/mL (≈ 97.7 µM) | 16.6 mm | 86.48% | 0.27 mL | – | – | 84.39% | 15 mm | 84.29% | – | 0.15 mL | 0.19 mL | inactive | inactive | diameter of the inhibition zone (DIZ) [4]: inactive; MIC [11]: inactive
